The source of these data is patent US12070445B2, “System and assay for monitoring production/release of membrane-lytic toxins in bacteria and compounds for modulating same” (priority 2021, dated 2024).

SMILES strings stand for the structures. “Also recorded” adds a separate entry of the source.

The test system of the test is WT S. aureus (RN6390b). The experiment in a line: Microtiter plate (96-well) vesicle lysis assay with WT S. aureus. The format is cell-based. The conditions noted are these: 100 nM 1, 10 μM 5, 20 μM 6, 10 μM AIP. As to the method:
Compound handling and preparation. OdDHL and BHL (Hodgkinson et al., 2011), S. aureus AIP and peptide derivatives 1-5 (Tal-Gan et al., 2013, Tal-Gan et al., 2016, Vasquez and Blackwell, 2019), and compounds 7-9 (Welsh and Blackwell, 2016a, Boursier et al., 2018, Manson et al., 2020) were synthesized using previously described methods. PQS and compound 6 were purchased from Millipore Sigma and AK Scientific respectively. Compounds were stored dry at −20° C. until needed and then dissolved in DMSO. DMSO stock solutions were prepared at concentrations that varied with compound potency and apparent solubility. Final in-well compound concentrations for 96-well vesicle lysis assays, unless noted otherwise, were: 10 μM for AIP, OdDHL, and PQS; 1 mM for BHL; 100 nM for 1-4; 10 μM for 5; 20 μM for 6; 100 μM for 7 and 8; and 200 μM for 9.
Production of phospholipid vesicles with encapsulated calcein. Large unilamellar vesicles (LUVs) were produced by adapting a freeze-thaw and vesicle extrusion procedure (Mayer et al., 1986). Briefly, stock solutions of phospholipids (DOPC, DPPC, DPPE, or cholesterol) in chloroform were mixed to the desired lipid compositions (70 mol % DOPC/30 mol % cholesterol for S. aureus vesicles or 68 mol % DPPC, 30 mol % cholesterol, 2 mol % DPPE for P. aeruginosa vesicles), and the chloroform was removed using an N2 stream or rotary evaporation followed by drying for at least one hour under vacuum. Self-quenching solutions of calcein were prepared by combining calcein and PBS or a specially prepared calcein buffer (1 mM EDTA, 10 mM Trisbase, and 100 mM NaCl; pH 8) to a calcein concentration of […]. The resulting solutions were titrated with 10 M aqueous NaOH until all calcein was dissolved and the solution reached pH 7.4 or pH 8 for PBS and the calcein buffer, respectively. The resulting calcein solutions were added to the dried phospholipid films (PBS for S. aureus formulations and the calcein buffer for the P. aeruginosa formulations) for a final lipid concentration of 5 mg/mL. The resulting lipid solutions were vortexed vigorously and briefly sonicated in a bath sonicator to form a turbid vesicle suspension. The vesicle suspensions were then freeze-thawed five times by alternately immersing them into an iPrOH/dry ice bath and a warm water bath (˜60° C.). Vesicles prepared for continuous time-course experiments were passed at least 5 times through a 100 nm polycarbonate filter using a Mini-prep extruder. Vesicles prepared for the high-throughput screen were passed through the filter 3 times. The resulting vesicles were then separated from external, unloaded calcein using a hand-packed Sephadex-G50 size exclusion chromatography column. The concentration of phospholipid in the solution was quantified using ^31P NMR (per the above protocol), and the phospholipid concentration was adjusted to 2 mM for unsaturated lipid solutions and 1 mM for saturated lipid solutions in their respective buffers. The resulting vesicles were characterized by dynamic light scattering and found to have a hydrodynamic diameter of ˜150 nm (FIGS. 3A-3C), which agrees with previous reports describing vesicle production using a similar method (Lapinski et al., 2007).
Microtiter plate vesicle lysis assays. Portions of media (2 or 10 mL) were inoculated with individual bacterial colonies and allowed to shake overnight. From these overnight cultures, subcultures were prepared by diluting the cultures 1:50 (v/v) in fresh BHI for S. aureus or 1:100 (v/v) in fresh LB for P. aeruginosa. An aliquot of each subculture (178 μL) was added to 20 μL of vesicle suspension and 2 μL of compound solution (dissolved in DMSO at 100× working concentration) in a clear-bottomed, black 96-well microtiter plate (Corning 3904). For controls, DMSO (vehicle) or Triton X-100 (1% final concentration) was substituted for compound. […]

Consider `CC(C)c1ccc(S(=O)(=O)c2nnn3c2nc(O)c2ccccc23)cc1` [Compound 6, savirin], for which the “effect on vesicle lysis (calcein fluorescence over 12 hr)” value is recorded as “wholly abrogated vesicle lysis; also recorded: repress vesicle lysis”.
